From PubChem BioAssay (NCI)
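Assay format: 96-well plates, 48-hour exposure. At the GI50, growth is halved. Definition used: TGI = concentration required for complete inhibition of growth.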

Legend:
Experiment in all cases: inhibition of tumour cell growth, NCI panel, 48 h
CAKI-1 renal = system: CAKI-1 renal
CCRF-CEM leukemia = system: CCRF-CEM leukemia
K-562 leukemia = system: K-562 leukemia
M14 melanoma = system: M14 melanoma
MOLT-4 leukemia = system: MOLT-4 leukemia
OVCAR-5 ovarian = system: OVCAR-5 ovarian
OVCAR-8 ovarian = system: OVCAR-8 ovarian
PC-3 prostate = system: PC-3 prostate
RPMI-8226 leukemia = system: RPMI-8226 leukemia
SF-539 CNS = system: SF-539 CNS
SK-MEL-28 melanoma = system: SK-MEL-28 melanoma
SN12C renal = system: SN12C renal

| Compound | TGI (CAKI-1 renal) [µM] | TGI (CCRF-CEM leukemia) [µM] | TGI (K-562 leukemia) [µM] | TGI (M14 melanoma) [µM] | TGI (MOLT-4 leukemia) [µM] | TGI (OVCAR-5 ovarian) [µM] | TGI (OVCAR-8 ovarian) [µM] | TGI (PC-3 prostate) [µM] | TGI (RPMI-8226 leukemia) [µM] | TGI (SF-539 CNS) [µM] | TGI (SK-MEL-28 melanoma) [µM] | TGI (SN12C renal) [µM] | GI50 (CAKI-1 renal) [µM] | GI50 (CCRF-CEM leukemia) [µM] | GI50 (K-562 leukemia) [µM] | GI50 (MOLT-4 leukemia) [µM] | GI50 (OVCAR-8 ovarian) [µM] | GI50 (RPMI-8226 leukemia) [µM] | GI50 (SF-539 CNS) [µM] |
| --- | --- | --- | --- | --- | --- | --- | --- | --- | --- | --- | --- | --- | --- | --- | --- | --- | --- | --- | --- |
| CC1CN=C(NS(=O)(=O)c2cc(C(=O)Nc3ccc(Cl)cc3)c(Cl)cc2S)NN1 (stereo not drawn) | > 100 | > 100 | > 100 | 69.5 | > 100 | > 100 | 59.3 | 94 | 70.8 | 81.8 | 83.9 | > 100 |  |  |  |  |  |  |  |
| O=C(Cc1ccccc1F)NC1=C(Cl)C(=O)c2ccccc2C1=O | 9.42 | 7.36 | > 41.8 | 7.41 | 6.47 | 21.2 | 9.36 | 11.9 | 19.1 | 1.93 | 9.6 | 16.8 |  |  |  |  |  |  |  |
| CN(C)c1ccc(/C=C/c2ccc(S(N)(=O)=O)cc2)cc1 | > 100 | > 100 | > 100 | 35.9 | > 100 | 53.6 | 27.5 | 34.8 | > 100 | 25.6 | 28 | 51.1 | 50.3 | 46 | > 100 | > 100 | 4.95 | 11.6 | 11.7 |
| CCCCCCCCCCCCOP(=O)(O)OP(=O)(O)OCC1OC(n2ccc(N)nc2=O)CC1O (stereo not drawn) | > 100 | > 100 | > 100 | > 100 | > 100 | > 100 | > 100 | > 100 | > 100 | > 100 | > 100 | > 100 |  |  |  |  |  |  |  |
| N#CC1(C#N)NC(c2ccccc2)C(C#N)(C#N)NC1c1ccccc1 (stereo not drawn) | > 100 | > 100 | > 100 | > 100 | > 100 | > 100 | > 100 | > 100 | > 100 | > 100 | > 100 | > 100 |  |  |  |  |  |  |  |
| CC(=O)Nc1ccc2nc(-c3ccccn3)c(-c3ccccn3)nc2c1 | > 100 | > 100 | > 100 | > 100 | > 100 | > 100 | > 100 | > 100 | > 100 | > 100 | > 100 | > 100 |  |  |  |  |  |  |  |
| Nc1ccc2[nH]c(-c3cccc(C(F)(F)F)c3)cc(=O)c2c1 | > 100 | 59.9 |  | > 100 | > 100 | > 100 | > 100 | 97.7 | > 100 | 53 | > 100 | > 100 |  |  |  |  |  |  |  |
| CC1(C)[C@@H]2C[C@H]1[C@@H](Cc1cccc(C[C@H]3c4cc(-c5ccccn5)ncc4[C@H]4C[C@@H]3C4(C)C)c1)c1cc(-c3ccccn3)ncc12 | 17 | > 100 | > 49.1 | > 100 | > 100 | > 100 | > 43.9 | > 100 | > 26.4 | > 100 | > 100 | > 29.9 |  |  |  |  |  |  |  |
| COC(=O)N1CC(=O)C(C(=O)NC23CC4CC(CC(C4)C2)C3)C1 (stereo not drawn) | > 100 | > 100 | > 100 | > 100 | > 100 | > 100 | > 100 | > 100 | > 100 | > 100 | > 100 |  |  |  |  |  |  |  |  |
| NNC(=O)CC(=O)Nc1cccc(Cl)c1 | > 100 | > 100 | > 100 |  | > 100 | > 100 | > 100 | > 100 | > 100 | > 100 | > 100 | > 100 |  |  |  |  |  |  |  |
| S=C(NCCc1ccccn1)N/N=C/c1ccccn1 | < 0.01 | < 0.01 |  | 3.39 |  | > 100 | > 100 | > 100 | 0.186 | 3.59 | > 100 | 13.3 |  |  |  |  |  |  |  |
| COC(=O)C1Cc2ccc(O)c(O)c2CN1 (stereo not drawn) | > 100 | > 100 | 83.6 | 29.7 | 58.7 | 70.3 |  | 84.3 | 68 | 32.5 | 31 | 30 |  |  |  |  |  |  |  |
| O=P1(c2ccccc2)c2ccccc2-c2ccccc21 | > 100 | > 100 | > 100 |  | > 100 |  | > 100 | > 100 | > 100 | > 100 | > 100 | > 100 |  |  |  |  |  |  |  |
| O=[N+]([O-])C(/C=C(\Cl)[N+](=O)[O-])=C1Nc2ccccc2N1 | 69.4 | 97.5 | > 100 | > 100 | > 100 |  | > 100 | > 100 | > 100 | 93.3 | > 100 | > 100 |  |  |  |  |  |  |  |
| CC1(c2sccc2Cl)CC(c2sccc2Cl)=C(C#N)C(=C(C#N)C#N)N1 (stereo not drawn) | 36.1 | > 100 |  | 42.7 | > 100 | 41.7 | 39 | 32.8 | 88 | 36.7 | 34.8 | 42.9 |  |  |  |  |  |  |  |
| COC(=O)C1CCN(C(=O)OC(C)(C)C)CC1 | > 100 | > 100 |  | > 100 | > 100 | > 100 | > 100 | > 100 | > 100 | > 100 | > 100 | > 100 |  |  |  |  |  |  |  |
